Holding throughout (format): biochemical
In one experiment the target is Jak2 (a.a. 828-1132) (Homo sapiens (Human), UniProt O60674). The experiment in a line: In vitro JAK kinase assay (HTRF, phosphorylation of a biotinylated peptide), JAK2. Conditions: measured at 1 mM ATP. A digest of the protocol:
(§1)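 Phosphorylation of a biotinylated peptide by purified His-tagged JAK catalytic domains (insect-cell baculovirus expression) ran 1 hr at room temperature. After stopping with EDTA, Eu-Py20 and SA-APC were bound for 40 minutes and HTRF measured.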
A general note: TR-FRET usually uses a lanthanide donor and a delayed reading to cut background.

Experiment [1] deals with human JAK1 (a.a. 837-1142). The experiment is described as follows: In vitro JAK kinase assay (HTRF, phosphorylation of a biotinylated peptide), JAK1. The settings on record: ratio of JAK2 IC50 to JAK1 IC50, measured at 1 mM ATP. Summed up: as §1
Experiment [2] addresses human JAK1 (a.a. 837-1142) (Homo sapiens, UniProt P23458). Described as above. Conditions: measured at 1 mM ATP. A digest of the protocol:
as §1

Here are results for 21 compounds from patent US9999619B2, “Piperidin-4-yl azetidine derivatives as JAK1 inhibitors” (Incyte Corporation, priority 2010, dated 2018).

By IC50 is commonly meant the concentration needed to halve the response being measured.

Chain of Jak2 (a.a. 828-1132) (O60674 828-1132): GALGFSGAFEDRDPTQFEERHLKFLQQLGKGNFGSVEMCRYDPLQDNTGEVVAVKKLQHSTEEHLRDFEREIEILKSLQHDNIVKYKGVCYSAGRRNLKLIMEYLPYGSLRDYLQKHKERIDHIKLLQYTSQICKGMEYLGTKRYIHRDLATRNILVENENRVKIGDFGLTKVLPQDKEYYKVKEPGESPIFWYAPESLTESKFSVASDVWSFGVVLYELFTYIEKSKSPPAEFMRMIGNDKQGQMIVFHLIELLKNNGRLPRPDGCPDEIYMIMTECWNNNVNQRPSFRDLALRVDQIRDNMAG

`N#CCC1(n2cc(-c3ncnc4[nH]ccc34)cn2)CN(C2CCN(C(=O)Nc3ccc(Cl)cc3F)CC2)C1` [Example 178, N-(4-chloro-2-fluorophenyl)-4-{3-(cyanomethyl)-3-[4-(7H-pyrrolo[2,3-d]pyrimidin-4-yl)-1H-pyrazol-1-yl]azetidin-1-yl}piperidine-1-carboxamide]: the figures for the IC50 (at Jak2 (a.a. 828-1132); in experiment [2]) were at most 10 nM and at most 5 nM, respectively. Moreover, the “IC50 Ratio JAK2/JAK1” value in experiment [1] is reported as 6.5.
For `N#CCC1(n2cc(-c3ncnc4[nH]ccc34)cn2)CN(C2CCN(C(=O)Nc3ccsc3)CC2)C1` [Example 179, 4-{3-(cyanomethyl)-3-[4-(7H-pyrrolo[2,3-d]pyrimidin-4-yl)-1H-pyrazol-1-yl]azetidin-1-yl}-N-3-thienylpiperidine-1-carboxamide], in that order: 50 to 100 nM, 5 to 20 nM and 3.8.
Regarding `COc1ccccc1NC(=O)N1CCC(N2CC(CC#N)(n3cc(-c4ncnc5[nH]ccc45)cn3)C2)CC1` [Example 180, 4-{3-(cyanomethyl)-3-[4-(7H-pyrrolo[2,3-d]pyrimidin-4-yl)-1H-pyrazol-1-yl]azetidin-1-yl}-N-(2-methoxyphenyl)piperidine-1-carboxamide], the half-maximal inhibitory concentration (IC50) was 10 to 50 nM at Jak2 (a.a. 828-1132) and at most 5 nM in experiment [2]. The “IC50 Ratio JAK2/JAK1” value in experiment [1] is 4.0.
Consider `COc1cccc(NC(=O)N2CCC(N3CC(CC#N)(n4cc(-c5ncnc6[nH]ccc56)cn4)C3)CC2)c1` [Example 181, 4-{3-(cyanomethyl)-3-[4-(7H-pyrrolo[2,3-d]pyrimidin-4-yl)-1H-pyrazol-1-yl]azetidin-1-yl}-N-(3-methoxyphenyl)piperidine-1-carboxamide], for which the IC50 against Jak2 (a.a. 828-1132) was 10 to 50 nM; in experiment [2], at most 5 nM. Moreover, the “IC50 Ratio JAK2/JAK1” value in experiment [1] is listed as 4.9.
With `N#CCC1(n2cc(-c3ncnc4[nH]ccc34)cn2)CN(C2CCN(C(=O)Nc3ccc(OC(F)(F)F)cc3)CC2)C1` [Example 182, 4-{3-(cyanomethyl)-3-[4-(7H-pyrrolo[2,3-d]pyrimidin-4-yl)-1H-pyrazol-1-yl]azetidin-1-yl}-N-[4-(trifluoromethoxy)phenyl]piperidine-1-carboxamide], the values for the IC50 (against Jak2 (a.a. 828-1132); in experiment [2]) were 10 to 50 nM and 5 to 20 nM, respectively. Also, the “IC50 Ratio JAK2/JAK1” value in experiment [1] was 3.7.
Take `N#CCC1(n2cc(-c3ncnc4[nH]ccc34)cn2)CN(C2CCN(C(=O)Nc3cccc(Cl)c3)CC2)C1` [Example 183, N-(3-chlorophenyl)-4-{3-(cyanomethyl)-3-[4-(7H-pyrrolo[2,3-d]pyrimidin-4-yl)-1H-pyrazol-1-yl]azetidin-1-yl}piperidine-1-carboxamide]: the figures for the IC50 (on Jak2 (a.a. 828-1132); in experiment [2]) were at most 10 nM and at most 5 nM, respectively. Moreover, the “IC50 Ratio JAK2/JAK1” value in experiment [1] stood at 3.8.
For `N#CCC1(n2cc(-c3ncnc4[nH]ccc34)cn2)CN(C2CCN(C(=O)Nc3ccc(Cl)cc3)CC2)C1` [Example 184, N-(4-chlorophenyl)-4-{3-(cyanomethyl)-3-[4-(7H-pyrrolo[2,3-d]pyrimidin-4-yl)-1H-pyrazol-1-yl]azetidin-1-yl}piperidine-1-carboxamide], in that order: at most 10 nM, at most 5 nM and 3.9.
For the compound `Cc1ccccc1NC(=O)N1CCC(N2CC(CC#N)(n3cc(-c4ncnc5[nH]ccc45)cn3)C2)CC1` [Example 185, 4-{3-(cyanomethyl)-3-[4-(7H-pyrrolo[2,3-d]pyrimidin-4-yl)-1H-pyrazol-1-yl]azetidin-1-yl}-N-(2-methylphenyl)piperidine-1-carboxamide], the half-inhibitory concentration (IC50) was 10 to 50 nM at Jak2 (a.a. 828-1132) and at most 5 nM in experiment [2]. Further, the “IC50 Ratio JAK2/JAK1” value in experiment [1] turned out to be 9.5.
For `COc1ccc(OC)c(NC(=O)N2CCC(N3CC(CC#N)(n4cc(-c5ncnc6[nH]ccc56)cn4)C3)CC2)c1` [Example 186, 4-{3-(cyanomethyl)-3-[4-(7H-pyrrolo[2,3-d]pyrimidin-4-yl)-1H-pyrazol-1-yl]azetidin-1-yl}-N-(2,5-dimethoxyphenyl)piperidine-1-carboxamide], in that order: 10 to 50 nM, at most 5 nM and 5.5.
For `Cc1ccc(NC(=O)N2CCC(N3CC(CC#N)(n4cc(-c5ncnc6[nH]ccc56)cn4)C3)CC2)c(C)n1` [Example 189, 4-{3-(cyanomethyl)-3-[4-(7H-pyrrolo[2,3-d]pyrimidin-4-yl)-1H-pyrazol-1-yl]azetidin-1-yl}-N-(2,6-dimethylpyridin-3-yl)piperidine-1-carboxamide], in that order: 10 to 50 nM, 5 to 20 nM and 3.5.
For the compound `N#CCC1(n2cc(-c3ncnc4[nH]ccc34)cn2)CN(C2CCN(C(=O)Nc3nccs3)CC2)C1` [Example 190, 4-{3-(cyanomethyl)-3-[4-(7H-pyrrolo[2,3-d]pyrimidin-4-yl)-1H-pyrazol-1-yl]azetidin-1-yl}-N-1,3-thiazol-2-ylpiperidine-1-carboxamide], the figures for the IC50 (on Jak2 (a.a. 828-1132); in experiment [2]) were 50 to 100 nM and 20 to 30 nM, respectively. Also, the “IC50 Ratio JAK2/JAK1” value in experiment [1] turned out to be 2.1.
Take `Cc1csc(NC(=O)N2CCC(N3CC(CC#N)(n4cc(-c5ncnc6[nH]ccc56)cn4)C3)CC2)n1` [Example 191, 4-{3-(cyanomethyl)-3-[4-(7H-pyrrolo[2,3-d]pyrimidin-4-yl)-1H-pyrazol-1-yl]azetidin-1-yl}-N-(4-methyl-1,3-thiazol-2-yl)piperidine-1-carboxamide]: the figures for the IC50 (against Jak2 (a.a. 828-1132); in experiment [2]) were 10 to 50 nM and 20 to 30 nM, respectively. Further, the “IC50 Ratio JAK2/JAK1” value in experiment [1] is on record as 1.4.
`Cc1nc(NC(=O)N2CCC(N3CC(CC#N)(n4cc(-c5ncnc6[nH]ccc56)cn4)C3)CC2)sc1C` [Example 192, 4-{3-(cyanomethyl)-3-[4-(7H-pyrrolo[2,3-d]pyrimidin-4-yl)-1H-pyrazol-1-yl]azetidin-1-yl}-N-(4,5-dimethyl-1,3-thiazol-2-yl)piperidine-1-carboxamide]: the IC50 against Jak2 (a.a. 828-1132) lay within 10 to 50 nM; in experiment [2] it was 5 to 20 nM. Moreover, the “IC50 Ratio JAK2/JAK1” value in experiment [1] stood at 3.0.
Turning to `N#CCC1(n2cc(-c3ncnc4[nH]ccc34)cn2)CN(C2CCN(C(=O)Nc3nc4ccccc4s3)CC2)C1` [Example 193, N-1,3-benzothiazol-2-yl-4-{3-(cyanomethyl)-3-[4-(7H-pyrrolo[2,3-d]pyrimidin-4-yl)-1H-pyrazol-1-yl]azetidin-1-yl}piperidine-1-carboxamide], the IC50 was at most 10 nM against Jak2 (a.a. 828-1132) and at most 5 nM in experiment [2]. For the same compound, the “IC50 Ratio JAK2/JAK1” value in experiment [1] was 0.5.
On to `Cn1c(NC(=O)N2CCC(N3CC(CC#N)(n4cc(-c5ncnc6[nH]ccc56)cn4)C3)CC2)nc2ccccc21` [Example 194, 4-{3-(cyanomethyl)-3-[4-(7H-pyrrolo[2,3-d]pyrimidin-4-yl)-1H-pyrazol-1-yl]azetidin-1-yl}-N-(1-methyl-1H-benzimidazol-2-yl)piperidine-1-carboxamide], for which the results for the IC50 (at Jak2 (a.a. 828-1132); in experiment [2]) were at most 10 nM and at most 5 nM, respectively. In addition, in experiment [1], the “IC50 Ratio JAK2/JAK1” value was 2.2.
As to `N#CCC1(n2cc(-c3ncnc4[nH]ccc34)cn2)CN(C2CCN(C(=O)Nc3nc(-c4ccc(Cl)cc4)cs3)CC2)C1` [Example 195, N-[4-(4-chlorophenyl)-1,3-thiazol-2-yl]-4-{3-(cyanomethyl)-3-[4-(7H-pyrrolo[2,3-d]pyrimidin-4-yl)-1H-pyrazol-1-yl]azetidin-1-yl}piperidine-1-carboxamide], the figures for the 50% inhibitory concentration (IC50) (on Jak2 (a.a. 828-1132); in experiment [2]) were 50 to 100 nM and 20 to 30 nM, respectively. For the same compound, the “IC50 Ratio JAK2/JAK1” value in experiment [1] was 3.2.
In the case of `CCn1nccc1NC(=O)N1CCC(N2CC(CC#N)(n3cc(-c4ncnc5[nH]ccc45)cn3)C2)CC1` [Example 196, 4-{3-(cyanomethyl)-3-[4-(7H-pyrrolo[2,3-d]pyrimidin-4-yl)-1H-pyrazol-1-yl]azetidin-1-yl}-N-(1-ethyl-1H-pyrazol-5-yl)piperidine-1-carboxamide], the 50% inhibitory concentration (IC50) lay in the range of 50 to 100 nM against Jak2 (a.a. 828-1132) and 5 to 20 nM in experiment [2]. The “IC50 Ratio JAK2/JAK1” value in experiment [1] was determined as 9.9.
For `Cc1cc(NC(=O)N2CCC(N3CC(CC#N)(n4cc(-c5ncnc6[nH]ccc56)cn4)C3)CC2)n(C)n1` [Example 197, 4-{3-(cyanomethyl)-3-[4-(7H-pyrrolo[2,3-d]pyrimidin-4-yl)-1H-pyrazol-1-yl]azetidin-1-yl}-N-(1,3-dimethyl-1H-pyrazol-5-yl)piperidine-1-carboxamide], in that order: 10 to 50 nM, 5 to 20 nM and 3.2.
As for `Cc1ncccc1NC(=O)N1CCC(N2CC(CC#N)(n3cc(-c4ncnc5[nH]ccc45)cn3)C2)CC1` [Example 198, 4-{3-(cyanomethyl)-3-[4-(7H-pyrrolo[2,3-d]pyrimidin-4-yl)-1H-pyrazol-1-yl]azetidin-1-yl}-N-(2-methylpyridin-3-yl)piperidine-1-carboxamide], the IC50 against Jak2 (a.a. 828-1132) is 10 to 50 nM; in experiment [2] it was at most 5 nM. Also, the “IC50 Ratio JAK2/JAK1” value in experiment [1] is 4.4.
Turning to `Cc1nc(F)ccc1NC(=O)N1CCC(N2CC(CC#N)(n3cc(-c4ncnc5[nH]ccc45)cn3)C2)CC1` [Example 199, 4-{3-(cyanomethyl)-3-[4-(7H-pyrrolo[2,3-d]pyrimidin-4-yl)-1H-pyrazol-1-yl]azetidin-1-yl}-N-(6-fluoro-2-methylpyridin-3-yl)piperidine-1-carboxamide], the concentration for half-maximal inhibition (IC50) is 10 to 50 nM on Jak2 (a.a. 828-1132) and at most 5 nM in experiment [2]. In experiment [1], the “IC50 Ratio JAK2/JAK1” value turned out to be 10.0.
As for `Cc1ccc(NC(=O)N2CCC(N3CC(CC#N)(n4cc(-c5ncnc6[nH]ccc56)cn4)C3)CC2)c(F)n1` [Example 200, 4-{3-(cyanomethyl)-3-[4-(7H-pyrrolo[2,3-d]pyrimidin-4-yl)-1H-pyrazol-1-yl]azetidin-1-yl}-N-(2-fluoro-6-methylpyridin-3-yl)piperidine-1-carboxamide], the figures for the IC50 (against Jak2 (a.a. 828-1132); in experiment [2]) were 10 to 50 nM and at most 5 nM, respectively. For the same compound, in experiment [1], the “IC50 Ratio JAK2/JAK1” value was 6.7.
